EC50 data for one compound are collected here from patent US10023613B2, “Peptidomimetic macrocycles as modulators of MCL-1” (AILERON Therapeutics, Inc., priority 2015, dated 2018).

For this assay, the system named is Human Raji cells. It is filed as cell-based. The following applies: Raji Cell Viability, 48 h, 5% serum. The procedure: BIM peptidomimetic macrocycles were tested for cell killing at various concentrations. Human Raji cells were treated with increasing doses of peptidomimetic macrocycles corresponding to SEQ ID NO. 763 (FIGS. 1 and 2), 1143 (FIGS. 1-3), and 1621 (FIGS. 3 and 4). An % Viable cells was calculated for each dose of the peptidomimetic macrocycle from a non-linear fit of response vs dose (GraphPad Prism). […]

Bridge positions count the residues as written; N and C are the ends. Square brackets hold non-standard residues; d marks the D form. Peptide text beside a SMILES is read from it. R8 = C=CCCCCCC[C@@](C)(N)C(=O)O; S5 = C=CCCC[C@](C)(N)C(=O)O Bounds are passed on as bounds.

The EC50 is the concentration at which the effect is half-maximal.

Compound `CC[C@H](C)[C@H](NC(C)=O)C(=O)N[C@@H](Cc1c[nH]c2ccccc12)C(=O)N[C@H](C(=O)N[C@@H](C)C(=O)N[C@@H](CCC(N)=O)C(=O)N[C@@H](C)C(=O)N[C@@H](CC(C)C)C(=O)N[C@@H](CCCNC(=N)N)C(=O)N[C@]1(C)CCCCCCC=CCCC[C@@](C)(C(=O)N[C@@H](Cc2ccc(O)cc2)C(=O)N[C@@H](Cc2ccc(O)cc2)C(=O)N[C@@H](C)C(N)=O)NC(=O)[C@H](CC(N)=O)NC(=O)[C@H](Cc2ccccc2)NC(=O)[C@H](CCC(=O)O)NC(=O)[C@H](CC(=O)O)NC(=O)CNC(=O)[C@H]([C@@H](C)CC)NC1=O)[C@@H](C)CC` [compound 1647] (Ac-IWIAQALR[R8]IGDEFN[S5]YYA-NH2; staple 9-16) displayed an EC50 of more than 40 µM.
